In brackets after ≈: the same amount, converted by molar mass.
How the values were obtained:
[1] = Determination of the solubility of anthraquinone derivatives in xylene/diisobutylcarbinol; conditions: for Solubility in the solvent system used (in words): xylene/diisobutylcarbinol solvent system, comparison of the derivatives
[2] = Solubility of the anthrahydroquinone from the amount of absorbed hydrogen until precipitation; assay type: physicochemical; conditions: hydroquinone form, equivolume mixture of xylene and diisobutylcarbinol, 30° C.
Protocol: 5 g of the anthraquinone derivative obtained from Example 4 were dissolved in an equivolume mixture of xylene and diisobutylcarbinol at 30° C. to obtain 100 ml of an anthraquinone solution. 2 g of a palladium catalyst on alumina was added to 50 ml of the anthraquinone solution and then the solution was made to absorb the theoretical amount of hydrogen at 30° C. The obtained solution has been left untouched for 15 h to thoroughly precipitate the excess of anthrahydroquinone. After the catalyst and the precipitate have been separated by filtration under a current of nitrogen, the resulting solution was stirred under air in order to oxidize the anthrahydroquinone back to the corresponding anthraquinone. The produced hydrogen peroxide was extracted with water. After the extraction of the hydrogen peroxide was completed, 25 mL of the working solution were further submitted to subsequent hydrogenation at 30° C. as described above until a state of saturation was reached.

[3] = mixture of xylene (50 volume-%) and diisobutylcarbinol (50 volume-%), 22° C., quinone form

Compound | Solubility [1, 3] | Solubility in the solvent system used (in words) [1] | Solubility ([1]; xylene/diisobutylcarbinol mixture (50:50 by volume)) | Solubility of the anthrahydroquinone [2]
CCc1ccc2c(c1)C(=O)c1ccccc1C2=O [2-ethylanthraquinone] |  | only poorly soluble |  | 
2,6-bis(4-methylpent-3-enyl)anthracene-9,10-dione and 2,7-bis(4-methylpent-3-enyl)anthracene-9,10-dione [Example 1] | 770 mM |  |  | 
CC(C)=CCc1ccc2c(c1)C(=O)c1ccccc1C2=O [Comparative Example 1, 2-(3-methylbut-2-en-1-yl)anthracene-9,10-dione] |  |  | 770 mM (≈ 213 mg/mL) | 

Next, values leading:

Solubility [1, 3] | Solubility in the solvent system used (in words) [1] | Solubility ([1]; xylene/diisobutylcarbinol mixture (50:50 by volume)) | Solubility of the anthrahydroquinone [2] | Compound
Insoluble | insoluble |  |  | Cc1cc2c(cc1C)C(=O)c1cc(C)c(C)cc1C2=O [Comparative Example 3, 2,3,6,7-tetramethylanthracene-9,10-dione]
1610 mM | highest solubility |  | 1010 mM | 2,6-diisohexylanthracene-9,10-dione and 2,7-diisohexylanthracene-9,10-dione [Example 4]

— US10227281B2, “Preparation of 2,6- and 2,7-disubstituted anthraquinone derivates” (BASF SE, priority 2014, dated 2019)
